Assay results reported in article PMC8766756, “Insights on Cancer Cell Inhibition, Subcellular Activities, and Kinase Profile of Phenylacetamides Pending 1H-Imidazol-5-One Variants” (Frontiers in Pharmacology, 2022).
Values joined by “and” are separate entries in the source; they are usually repeats but may differ in a detail not shown here. Equal values may be shown once.

What was measured:
Assay in all cases: PamChip tyrosine kinase microarray
Format in all cases: biochemical
Details in all cases: 0.1 µM, HL60 lysate
[1] = target: T1, Arg (P42684) (Homo sapiens, UniProt P42684)
T1 construct: purchased PamGene (PamChip PTK array, Upstream Kinase Analysis)
Outline: (§1)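 HL60 (AML) cell lysate was spiked with compound at 0.001, 0.01, 0.1, 1, 10 and 50 µM, or 2% v/v DMSO as control, then profiled in technical replicates on a tyrosine kinase peptide array of 196 phosphosites. Kinase activity was inferred from peptide-set changes using an upstream kinase tool.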

[2] = target: T2, EphA2 (P29317) (Homo sapiens, UniProt P29317)
T2 construct: purchased PamGene (PamChip PTK array, Upstream Kinase Analysis)
Outline: as §1

[3] = target: T3, FGFR2 (P21802) (Homo sapiens, UniProt P21802)
T3 construct: purchased PamGene (PamChip PTK array, Upstream Kinase Analysis)
Outline: as §1

[4] = target: T4, JAK3 (P52333) (Homo sapiens, UniProt P52333)
T4 construct: purchased PamGene (PamChip PTK array, Upstream Kinase Analysis)
T4 sequence (P52333 1-1124): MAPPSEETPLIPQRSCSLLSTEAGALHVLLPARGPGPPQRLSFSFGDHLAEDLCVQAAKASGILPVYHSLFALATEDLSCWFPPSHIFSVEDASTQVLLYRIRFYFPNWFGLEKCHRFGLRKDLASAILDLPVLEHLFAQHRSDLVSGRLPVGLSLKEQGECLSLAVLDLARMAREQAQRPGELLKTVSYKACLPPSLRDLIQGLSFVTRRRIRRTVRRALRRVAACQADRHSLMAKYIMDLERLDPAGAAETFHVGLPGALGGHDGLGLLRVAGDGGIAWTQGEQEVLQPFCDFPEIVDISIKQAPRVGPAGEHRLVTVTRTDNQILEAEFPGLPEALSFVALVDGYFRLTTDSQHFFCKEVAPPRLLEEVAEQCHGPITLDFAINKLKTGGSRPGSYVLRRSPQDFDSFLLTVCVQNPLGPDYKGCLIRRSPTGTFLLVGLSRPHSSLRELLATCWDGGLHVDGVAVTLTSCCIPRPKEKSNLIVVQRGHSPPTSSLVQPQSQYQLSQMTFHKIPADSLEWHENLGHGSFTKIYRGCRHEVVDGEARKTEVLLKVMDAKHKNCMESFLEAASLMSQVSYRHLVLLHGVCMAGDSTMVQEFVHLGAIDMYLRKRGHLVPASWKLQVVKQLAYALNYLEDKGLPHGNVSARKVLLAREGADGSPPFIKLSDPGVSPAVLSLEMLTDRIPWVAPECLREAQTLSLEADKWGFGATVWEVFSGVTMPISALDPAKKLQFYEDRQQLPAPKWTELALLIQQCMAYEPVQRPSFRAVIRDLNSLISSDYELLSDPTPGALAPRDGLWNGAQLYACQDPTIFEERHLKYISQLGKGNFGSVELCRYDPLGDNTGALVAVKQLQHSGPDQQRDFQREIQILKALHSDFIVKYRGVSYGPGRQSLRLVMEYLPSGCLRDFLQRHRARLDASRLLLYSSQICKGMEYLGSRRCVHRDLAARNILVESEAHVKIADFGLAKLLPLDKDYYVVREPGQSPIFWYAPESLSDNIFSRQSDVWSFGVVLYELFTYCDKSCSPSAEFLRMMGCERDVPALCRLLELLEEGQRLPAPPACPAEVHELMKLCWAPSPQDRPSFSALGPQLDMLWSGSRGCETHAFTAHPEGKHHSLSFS
Outline: as §1

[5] = target: T5, KDR (P35968) (Homo sapiens, UniProt P35968)
T5 construct: purchased PamGene (PamChip PTK array, Upstream Kinase Analysis)
Outline: as §1

[6] = target: T6, Kit (P10721) (Homo sapiens, UniProt P10721)
T6 construct: purchased PamGene (PamChip PTK array, Upstream Kinase Analysis)
Outline: as §1

[7] = target: T7, Yes (P07947) (Homo sapiens, UniProt P07947)
T7 construct: purchased PamGene (PamChip PTK array, Upstream Kinase Analysis)
Outline: as §1

T7 sequence (P07947 whole entry): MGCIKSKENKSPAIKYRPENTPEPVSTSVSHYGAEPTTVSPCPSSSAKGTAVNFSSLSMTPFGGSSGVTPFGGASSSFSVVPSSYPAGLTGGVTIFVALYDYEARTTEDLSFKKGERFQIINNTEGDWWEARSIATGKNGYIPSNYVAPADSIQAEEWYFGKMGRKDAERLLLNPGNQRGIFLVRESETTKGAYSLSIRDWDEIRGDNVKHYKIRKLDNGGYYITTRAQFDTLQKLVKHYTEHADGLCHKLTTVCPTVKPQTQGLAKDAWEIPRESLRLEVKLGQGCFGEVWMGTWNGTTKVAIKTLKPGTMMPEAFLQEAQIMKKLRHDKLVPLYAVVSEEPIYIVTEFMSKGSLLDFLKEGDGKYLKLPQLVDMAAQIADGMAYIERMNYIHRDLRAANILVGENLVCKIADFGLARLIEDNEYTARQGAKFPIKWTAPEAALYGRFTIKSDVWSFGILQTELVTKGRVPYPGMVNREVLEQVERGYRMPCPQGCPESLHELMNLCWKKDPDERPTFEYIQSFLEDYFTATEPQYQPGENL
T2 sequence (P29317 24-976): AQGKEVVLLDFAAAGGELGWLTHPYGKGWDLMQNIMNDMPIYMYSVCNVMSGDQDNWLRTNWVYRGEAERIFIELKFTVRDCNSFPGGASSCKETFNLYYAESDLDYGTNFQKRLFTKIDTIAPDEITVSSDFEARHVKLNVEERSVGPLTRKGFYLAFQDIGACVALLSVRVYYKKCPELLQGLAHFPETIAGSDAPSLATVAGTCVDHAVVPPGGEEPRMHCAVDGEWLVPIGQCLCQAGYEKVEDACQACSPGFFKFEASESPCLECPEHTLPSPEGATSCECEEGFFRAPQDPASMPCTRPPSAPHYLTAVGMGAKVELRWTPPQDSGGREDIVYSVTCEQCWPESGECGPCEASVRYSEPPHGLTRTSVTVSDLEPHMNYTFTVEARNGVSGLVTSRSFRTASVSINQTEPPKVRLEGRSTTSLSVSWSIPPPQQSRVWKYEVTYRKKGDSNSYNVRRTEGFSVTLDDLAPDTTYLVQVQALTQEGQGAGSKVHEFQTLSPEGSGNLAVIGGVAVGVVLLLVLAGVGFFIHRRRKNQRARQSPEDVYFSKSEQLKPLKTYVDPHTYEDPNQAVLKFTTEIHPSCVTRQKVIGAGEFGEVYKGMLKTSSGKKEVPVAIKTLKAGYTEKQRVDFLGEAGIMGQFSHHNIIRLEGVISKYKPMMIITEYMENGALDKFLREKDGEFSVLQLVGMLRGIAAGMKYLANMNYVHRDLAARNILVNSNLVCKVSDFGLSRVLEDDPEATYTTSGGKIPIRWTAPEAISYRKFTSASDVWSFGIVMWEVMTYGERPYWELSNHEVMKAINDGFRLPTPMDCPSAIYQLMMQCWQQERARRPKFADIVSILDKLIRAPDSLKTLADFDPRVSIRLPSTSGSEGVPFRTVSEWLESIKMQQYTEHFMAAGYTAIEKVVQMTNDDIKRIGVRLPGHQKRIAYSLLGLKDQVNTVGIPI
T1 sequence (P42684 whole entry): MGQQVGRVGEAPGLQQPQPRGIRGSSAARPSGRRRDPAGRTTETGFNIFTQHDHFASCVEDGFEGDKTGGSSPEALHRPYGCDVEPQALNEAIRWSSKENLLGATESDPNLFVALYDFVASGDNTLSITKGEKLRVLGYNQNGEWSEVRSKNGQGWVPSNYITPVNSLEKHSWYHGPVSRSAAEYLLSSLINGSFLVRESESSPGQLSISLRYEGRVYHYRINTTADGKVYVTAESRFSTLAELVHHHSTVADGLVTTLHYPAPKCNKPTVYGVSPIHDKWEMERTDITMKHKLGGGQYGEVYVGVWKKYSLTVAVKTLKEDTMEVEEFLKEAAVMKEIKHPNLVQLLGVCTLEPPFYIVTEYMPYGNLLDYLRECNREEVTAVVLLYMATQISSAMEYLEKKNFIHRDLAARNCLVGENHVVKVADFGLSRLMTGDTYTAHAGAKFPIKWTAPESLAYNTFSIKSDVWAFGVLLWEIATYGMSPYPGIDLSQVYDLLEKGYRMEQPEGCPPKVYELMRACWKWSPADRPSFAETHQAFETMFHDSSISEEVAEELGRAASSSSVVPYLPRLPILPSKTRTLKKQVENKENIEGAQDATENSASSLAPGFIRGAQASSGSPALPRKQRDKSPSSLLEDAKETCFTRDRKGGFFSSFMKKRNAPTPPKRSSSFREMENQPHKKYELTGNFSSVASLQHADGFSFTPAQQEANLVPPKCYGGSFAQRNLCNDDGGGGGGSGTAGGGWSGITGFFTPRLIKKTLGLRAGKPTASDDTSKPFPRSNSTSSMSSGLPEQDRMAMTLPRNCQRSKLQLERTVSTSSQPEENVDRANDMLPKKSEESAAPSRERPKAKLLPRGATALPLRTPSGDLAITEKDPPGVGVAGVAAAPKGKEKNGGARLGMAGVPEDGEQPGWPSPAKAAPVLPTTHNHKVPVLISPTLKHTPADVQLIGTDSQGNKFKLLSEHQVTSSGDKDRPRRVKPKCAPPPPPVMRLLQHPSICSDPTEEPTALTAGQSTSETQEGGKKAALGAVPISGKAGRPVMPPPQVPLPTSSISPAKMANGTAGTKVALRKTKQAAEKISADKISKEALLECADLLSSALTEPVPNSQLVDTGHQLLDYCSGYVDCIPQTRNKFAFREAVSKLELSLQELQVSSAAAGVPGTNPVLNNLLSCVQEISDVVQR
T3 sequence (P21802 22-821): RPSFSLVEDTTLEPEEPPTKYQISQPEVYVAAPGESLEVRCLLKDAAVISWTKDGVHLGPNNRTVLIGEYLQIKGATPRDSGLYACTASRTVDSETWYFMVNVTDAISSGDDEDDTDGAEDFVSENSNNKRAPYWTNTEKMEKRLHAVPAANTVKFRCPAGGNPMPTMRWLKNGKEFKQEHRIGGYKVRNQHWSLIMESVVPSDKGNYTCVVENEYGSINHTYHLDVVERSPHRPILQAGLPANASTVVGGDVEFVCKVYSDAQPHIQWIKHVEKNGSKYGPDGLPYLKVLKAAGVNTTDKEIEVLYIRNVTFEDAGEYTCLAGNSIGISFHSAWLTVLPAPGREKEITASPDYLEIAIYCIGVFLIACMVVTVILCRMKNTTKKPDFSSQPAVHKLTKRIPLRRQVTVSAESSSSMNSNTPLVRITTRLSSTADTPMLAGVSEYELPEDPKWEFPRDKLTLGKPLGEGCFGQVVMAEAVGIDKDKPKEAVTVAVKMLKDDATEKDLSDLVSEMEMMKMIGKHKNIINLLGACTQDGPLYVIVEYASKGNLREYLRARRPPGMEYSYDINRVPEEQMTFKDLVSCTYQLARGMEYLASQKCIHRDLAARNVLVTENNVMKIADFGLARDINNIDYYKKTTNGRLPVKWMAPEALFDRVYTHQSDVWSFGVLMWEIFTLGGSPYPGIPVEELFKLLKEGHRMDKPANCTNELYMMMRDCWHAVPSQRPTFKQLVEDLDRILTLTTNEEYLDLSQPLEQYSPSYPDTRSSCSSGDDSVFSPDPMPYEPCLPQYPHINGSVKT
T5 sequence (P35968 20-1356): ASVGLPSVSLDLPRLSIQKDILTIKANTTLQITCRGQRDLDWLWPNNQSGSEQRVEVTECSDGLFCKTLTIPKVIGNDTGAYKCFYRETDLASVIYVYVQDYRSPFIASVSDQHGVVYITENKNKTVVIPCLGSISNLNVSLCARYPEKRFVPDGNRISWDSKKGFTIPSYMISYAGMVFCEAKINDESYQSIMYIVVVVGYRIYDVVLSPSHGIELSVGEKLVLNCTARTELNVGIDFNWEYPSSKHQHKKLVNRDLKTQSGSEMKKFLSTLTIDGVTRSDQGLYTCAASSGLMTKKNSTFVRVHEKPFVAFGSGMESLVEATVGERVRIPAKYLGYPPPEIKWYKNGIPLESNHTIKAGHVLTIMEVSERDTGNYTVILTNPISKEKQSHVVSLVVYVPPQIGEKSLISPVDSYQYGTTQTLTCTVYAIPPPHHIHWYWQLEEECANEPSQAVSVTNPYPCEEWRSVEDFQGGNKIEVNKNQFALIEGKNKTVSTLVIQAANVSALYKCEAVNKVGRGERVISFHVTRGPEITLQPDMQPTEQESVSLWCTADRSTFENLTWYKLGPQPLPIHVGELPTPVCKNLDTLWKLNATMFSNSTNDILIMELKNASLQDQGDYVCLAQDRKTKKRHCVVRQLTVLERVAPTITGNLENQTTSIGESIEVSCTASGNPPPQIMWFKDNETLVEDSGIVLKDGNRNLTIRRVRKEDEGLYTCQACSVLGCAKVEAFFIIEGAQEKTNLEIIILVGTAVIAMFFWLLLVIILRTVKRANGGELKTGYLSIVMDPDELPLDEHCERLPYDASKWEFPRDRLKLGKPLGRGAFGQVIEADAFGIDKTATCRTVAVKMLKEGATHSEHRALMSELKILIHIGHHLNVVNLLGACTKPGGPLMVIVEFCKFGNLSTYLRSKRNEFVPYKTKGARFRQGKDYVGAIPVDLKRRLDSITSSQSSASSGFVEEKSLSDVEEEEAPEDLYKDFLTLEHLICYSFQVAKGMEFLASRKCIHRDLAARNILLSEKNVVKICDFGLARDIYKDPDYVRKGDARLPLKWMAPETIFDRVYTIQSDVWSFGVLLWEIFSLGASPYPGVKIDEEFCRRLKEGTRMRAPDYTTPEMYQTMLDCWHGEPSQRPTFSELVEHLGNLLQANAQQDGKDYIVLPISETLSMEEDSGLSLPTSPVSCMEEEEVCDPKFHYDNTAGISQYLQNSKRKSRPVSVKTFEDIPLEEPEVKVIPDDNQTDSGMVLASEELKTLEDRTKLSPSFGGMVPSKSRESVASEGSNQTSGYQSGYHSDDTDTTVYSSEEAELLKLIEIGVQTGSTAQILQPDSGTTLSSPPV

Q: How did the “Mean Final score (Kinase score)” value [1] turn out when COc1ccc(/C=C2\N=C(C)N(c3ccc(CC(=O)NCc4ccccc4)cc3)C2=O)cc1 [Compound 4c, (Z)-N-Benzyl-2-(4-(4-(4-methoxybenzylidene)-2-methyl-5-oxo-4,5-dihydro-1H-imidazol-1-yl)phenyl)acetamide] was run?
A: 2.115

Q: What about the “Mean Kinase Statistic” value [1] of the same compound?
A: -1.085

Q: And the “Mean Significance Score” value [1]?
A: 2.048

Q: What about the “Mean Specificity Score” value [1] of the same compound?
A: 0.07369

Q: And the “Mean Significance Score” value [2]?
A: 1.975

Q: What about the “Mean Specificity Score” value [2] of the same compound?
A: 0.9606

Q: And the “Mean Final score (Kinase score)” value ([2]; listed as KIM-161)?
A: 3.09 and 3.095

Q: And the “Mean Final score (Kinase score)” value [3]?
A: 2.386

Q: What about the “Mean Kinase Statistic” value [3] of the same compound?
A: -1.189

Q: What about the “Mean Significance Score” value [3] of the same compound?
A: 2.048

Q: And the “Mean Specificity Score” value [3]?
A: 0.3335

Q: And the “Mean Final score (Kinase score)” value [4]?
A: 1.746

Q: What about the “Mean Kinase Statistic” value [4] of the same compound?
A: -1.15

Q: What about the “Mean Significance Score” value [4] of the same compound?
A: 1.478

Q: What about the “Mean Specificity Score” value [4] of the same compound?
A: 0.2986

Q: And the “Mean Final score (Kinase score)” value [5]?
A: 2.535

Q: And the “Mean Kinase Statistic” value [5]?
A: -1.256

Q: And the “Mean Significance Score” value [5]?
A: 2.048

Q: What about the “Mean Specificity Score” value [5] of the same compound?
A: 0.5472

Q: And the “Mean Final score (Kinase score)” value [6]?
A: 2.581

Q: And the “Mean Kinase Statistic” value [6]?
A: -1.291

Q: And the “Mean Significance Score” value [6]?
A: 2.048

Q: What about the “Mean Specificity Score” value [6] of the same compound?
A: 0.5837

Q: And the “Mean Final score (Kinase score)” value [7]?
A: 1.8671

Q: And the “Mean Kinase Statistic” value [7]?
A: -0.9897

Q: What about the “Mean Significance Score” value [7] of the same compound?
A: 1.824

Q: What about the “Mean Specificity Score” value [7] of the same compound?
A: 0.04992
